The subject of this test is yeast induced pyrexia. Briefly: Antipyretic effect on yeast induced pyrexia in rats. In kind it is in vivo. The note with it: Paracetamol 150 mg/kg.

Marks after values point to notes of the source that are not given here.

As to `CC(=O)Nc1ccc(O)cc1` [Paracetamol], the “Rectal temperature before and after treatment” value runs as follows: (0 h) 37.7 ± 0.2 °C; (1 h) 39.0 ± 0.2 °C; (2 h) 38.1 ± 0.3 °C; (3 h) 37.7 ± 0.2^b ° C; (4 h) 37.6 ± 0.2 °C.
